In ChEMBL document CHEMBL1201862, “PubChem BioAssay data set” (2004):
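96-well plates; 48 h exposure; 5 concentrations. Endpoints by linear interpolation between flanking doses. Not reached: highest tested concentration assigned. GI50: concentration for 50% inhibition of growth.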 Activity calls are given as the source filed them. No stated cut-off is given here; in the data, active = GI50 up to about 1.1 µM and inactive = higher.

Experiments:
Experiment in all cases: NCI-60 cell line screen, 48 h
[1] = tested on: Hs-578T
[2] = tested on: DLD-1
[3] = tested on: SNB-78
[4] = tested on: DMS-273
[5] = tested on: M19-MEL
[6] = tested on: DMS-114
[7] = tested on: KM-20L2
[8] = tested on: LXFL 529
[9] = tested on: RXF 631

`CC(=O)Oc1ccc(-c2nnc(-c3ccc(OC(C)=O)cc3)nn2)cc1` was tested, and the GI50 [1] was > 100 µM (inactive).
For `Cc1ccsc1/C=N/NC1=NCCN1`, the GI50 [1] was > 100 µM (inactive).
For `Cc1ccc(S(=O)ON2CCC(C(=O)O)(c3ccccc3)CC2)cc1` (stereo not drawn), the GI50 [1] was > 100 µM (inactive).
With `COc1cccc(/C=C2\C(=O)N(C(=O)c3ccc(NC(C)=O)cc3)N=C2C)c1` the GI50 [2] was > 100 µM (inactive), the GI50 [3] was > 100 µM (inactive) and the GI50 [4] was > 100 µM (inactive). The GI50 [5] was > 100 µM (inactive) and the GI50 [6] was > 100 µM (inactive).
With `Cc1cc(O)c(C(=O)O)c2c1C(=O)c1c(O)c(OCC(O)C(O)C(O)C(O)CO)c(O)c(O)c1C2=O.NCCNCCO` (stereo not drawn) the GI50 [2] was > 100 µM (inactive), the GI50 [7] was > 100 µM (inactive) and the GI50 [3] was > 100 µM (inactive). For the same molecule, the GI50 [8] was > 100 µM (inactive), the GI50 [5] was > 100 µM (inactive) and the GI50 [6] was > 100 µM (inactive).
In the case of `CCN(CC)C1Oc2cc3c(cc2C(c2cc(OC)c(OC)c(OC)c2)C1C)OCO3` (stereo not drawn), the GI50 [1] is reported as 0.759 µM (active).
`COCCNC1CCC2(SCCS2)c2[nH]c3ccccc3c21` (stereo not drawn) was tested, and the GI50 [1] was 57.9 µM (inactive).
For `Cc1cccc(C)c1/N=N/c1ccc(O)c(CN(C)C)c1`, the GI50 [1] was 30.8 µM (inactive).
With `N#CC1=C(c2ccccc2)NNC(c2ccc(Cl)cc2)CC1=O` (stereo not drawn) the GI50 [9] was > 10 µM (inactive), the GI50 [2] was 32.4 µM (inactive) and the GI50 [7] was 24 µM (inactive). For the same molecule, the GI50 [3] was > 100 µM (inactive), the GI50 [8] was 28.7 µM (inactive) and the GI50 [6] was 82.2 µM (inactive).
In the case of `O=C(Cn1ccnc1[N+](=O)[O-])c1ccc(F)cc1`, the GI50 [7] is reported as > 100 µM (inactive), the GI50 [4] is reported as > 100 µM (inactive) and the GI50 [8] is reported as > 100 µM (inactive). The GI50 [5] was > 100 µM (inactive) and the GI50 [6] was > 100 µM (inactive).
`O=P(Oc1ccc(Cl)cc1)(Oc1ccc(Cl)cc1)N1CC1` was tested, and the GI50 [1] was > 10 µM (inactive).
`COC(CNC(=O)C(C)NC(=O)C(C)NC(=O)c1ccccc1)OC` (stereo not drawn) was tested, and the GI50 [1] was > 100 µM (inactive).
`COC(=O)C1CC(C=[N+](C)C)=C(SC)N1` (stereo not drawn) was tested, and the GI50 [1] was > 100 µM (inactive).
For `COC1(OC)CC2C(=O)N(Cc3ccccc3)C1C(S(=O)(=O)c1ccccc1)C2C(C)S(=O)(=O)c1ccccc1` (stereo not drawn), the GI50 [2] was > 100 µM (inactive), the GI50 [7] was > 100 µM (inactive) and the GI50 [3] was > 100 µM (inactive). For the same molecule, the GI50 [4] was > 100 µM (inactive), the GI50 [8] was > 100 µM (inactive) and the GI50 [5] was > 100 µM (inactive). For the same molecule, the GI50 [6] was 75.5 µM (inactive).
`COc1ccc(Nc2cc(O)nc(O)n2)cc1` was tested, and the GI50 [1] was > 100 µM (inactive).
For `Cc1ccccc1NC(=O)C1C(=O)N(c2ccccc2C)C(=O)/C1=N\NC(N)=S` (stereo not drawn), the GI50 [9] was > 100 µM (inactive), the GI50 [2] was > 100 µM (inactive) and the GI50 [7] was > 100 µM (inactive). The GI50 [4] was > 100 µM (inactive) and the GI50 [8] was > 100 µM (inactive).
For `COc1cccc(OC)c1C(=O)OCc1ccccc1`, the GI50 [2] was > 100 µM (inactive), the GI50 [7] was > 100 µM (inactive) and the GI50 [8] was > 100 µM (inactive). The GI50 [5] was > 100 µM (inactive) and the GI50 [6] was > 100 µM (inactive).
With `COc1ccc(-n2c(N)c(C#N)c(C#N)c2-c2ccccc2)cc1` the GI50 [1] was 6.58 µM (inactive).
With `CC1CC[C@@]2(OC1)OC1C[C@H]3[C@@H]4CC=C5CC(OC6OC(CO)C(OC7OC(CO)C(O)C(OC8OCC(O)C(O)C8O)C7OC7OC(CO)C(OC8OC(C)C(OC9OC(C)C(O)C(O)C9O)C(O)C8O)C(O)C7O)C(O)C6O)CCC5(C)[C@H]4CCC3(C)C1[C@@H]2C` (stereo partly drawn) the GI50 [1] was 9.29 µM (inactive).
With `CC(=O)Oc1c(-c2ccccc2)oc2ccccc12` the GI50 [1] was 2.36 µM (inactive).
For `OC12CCC3(O)c4ccccc4C3C1c1ccccc12` (stereo not drawn), the GI50 [7] was > 100 µM (inactive), the GI50 [3] was > 100 µM (inactive) and the GI50 [4] was > 100 µM (inactive). For the same molecule, the GI50 [8] was > 100 µM (inactive) and the GI50 [5] was > 100 µM (inactive).
With `CC1(C)CCCC(C)(C2CCC3(C)C2C(O)CC2C4(C)CCC(O)C(C)(C)C4CCC23C)O1` (stereo not drawn) the GI50 [1] was 20.7 µM (inactive).
With `O=C1C(=C(C(F)(F)Cl)C(F)(F)Cl)C2CCC1C2` (stereo not drawn) the GI50 [1] was 4.51 µM (inactive).
With `O=C1CC(c2ccccc2Cl)C2(C(=O)NC(=O)NC2=O)C(c2ccccc2Cl)C1` (stereo not drawn) the GI50 [1] was 41.4 µM (inactive).
In the case of `C=C1C(=O)OC2CC1C(O)C/C(C)=C/CC/C(C)=C/C(O)CC2C` (stereo not drawn), the GI50 [1] is reported as 3.03 µM (inactive).
In the case of `S=c1sscc1N1CCSc2ssc(=S)c21`, the GI50 [1] is reported as 88.1 µM (inactive).
`CCC1(C)C=Cc2c(cc(O)c3c(=O)c4ccccc4n(C)c23)O1` (stereo not drawn) was tested, and the GI50 [1] was > 10 µM (inactive).
With `CC(=O)CC(=O)ON(C)C(=O)Cc1ccccc1` the GI50 [2] was > 100 µM (inactive), the GI50 [7] was > 100 µM (inactive) and the GI50 [3] was > 100 µM (inactive). The GI50 [4] was > 100 µM (inactive), the GI50 [8] was > 100 µM (inactive) and the GI50 [5] was > 100 µM (inactive). The GI50 [6] was > 100 µM (inactive).
With `CNNC1=NS(=O)(=O)c2cc(C(=O)OC)c(Cl)cc2S1` the GI50 [1] was > 10 µM (inactive).
For `Cc1cc(C)nc(NS(=O)(=O)c2ccc(NC(=O)COC(=O)c3cccc4c(=O)c5ccccc5[nH]c34)cc2)n1`, the GI50 [2] was 45.7 µM (inactive), the GI50 [7] was 38.6 µM (inactive) and the GI50 [3] was 82.2 µM (inactive). The GI50 [4] was 41.2 µM (inactive), the GI50 [8] was 39.8 µM (inactive) and the GI50 [5] was 20.4 µM (inactive). For the same molecule, the GI50 [6] was 56.5 µM (inactive).
In the case of `COc1ccc(C(=O)NCCC2CN(S(=O)(=O)C(F)(F)F)c3ccccc32)c(OC)c1` (stereo not drawn), the GI50 [1] is reported as 33.1 µM (inactive).
In the case of `C=CCn1c(=O)c(Br)nn(CCOCP(=O)(OCC)OCC)c1=O`, the GI50 [1] is reported as > 100 µM (inactive).
In the case of `O=c1[nH]c(=O)n(C2OC(CO)C(O)C2O)cc1OCCCc1ccccc1` (stereo not drawn), the GI50 [1] is reported as > 100 µM (inactive).
For `O=C1c2ccccc2C2C1C(c1ccccc1)C1(Cc3ccccc3C1=O)C2c1ccccc1` (stereo not drawn), the GI50 [1] was > 100 µM (inactive).
`ClC1(Cl)C2CCOC21n1cnc2ccccc21` (stereo not drawn) was tested, and the GI50 [1] was > 100 µM (inactive).
